Assay [1] concerns HCT116 colon cancer cells. Kind of assay: HCT116 cell viability and proliferation assay (MTS). In kind it is cell-based. The following applies: mean of three independent experiments, read-out: HCT116 GI50 D3. In short, it runs like this:
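HCT116 cells, 10^3 per well, treated 24 h after seeding with eight concentrations from 10 μM to 5 nM (0.5% final DMSO), in triplicate, for 72 h. Viability read by MTS reduction (2 h) at 492 nm. GI50 from sigmoidal variable-slope fit; mean of three independent experiments.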

The target of the next assay is T1, USP8 (Homo sapiens, UniProt P40818).
T1 construct: His tag (pFastBac-HT vector) (N); made in house; host or cells: Sf9 or High Five insect cells (baculovirus)
T1 sequence (P40818 1-1118): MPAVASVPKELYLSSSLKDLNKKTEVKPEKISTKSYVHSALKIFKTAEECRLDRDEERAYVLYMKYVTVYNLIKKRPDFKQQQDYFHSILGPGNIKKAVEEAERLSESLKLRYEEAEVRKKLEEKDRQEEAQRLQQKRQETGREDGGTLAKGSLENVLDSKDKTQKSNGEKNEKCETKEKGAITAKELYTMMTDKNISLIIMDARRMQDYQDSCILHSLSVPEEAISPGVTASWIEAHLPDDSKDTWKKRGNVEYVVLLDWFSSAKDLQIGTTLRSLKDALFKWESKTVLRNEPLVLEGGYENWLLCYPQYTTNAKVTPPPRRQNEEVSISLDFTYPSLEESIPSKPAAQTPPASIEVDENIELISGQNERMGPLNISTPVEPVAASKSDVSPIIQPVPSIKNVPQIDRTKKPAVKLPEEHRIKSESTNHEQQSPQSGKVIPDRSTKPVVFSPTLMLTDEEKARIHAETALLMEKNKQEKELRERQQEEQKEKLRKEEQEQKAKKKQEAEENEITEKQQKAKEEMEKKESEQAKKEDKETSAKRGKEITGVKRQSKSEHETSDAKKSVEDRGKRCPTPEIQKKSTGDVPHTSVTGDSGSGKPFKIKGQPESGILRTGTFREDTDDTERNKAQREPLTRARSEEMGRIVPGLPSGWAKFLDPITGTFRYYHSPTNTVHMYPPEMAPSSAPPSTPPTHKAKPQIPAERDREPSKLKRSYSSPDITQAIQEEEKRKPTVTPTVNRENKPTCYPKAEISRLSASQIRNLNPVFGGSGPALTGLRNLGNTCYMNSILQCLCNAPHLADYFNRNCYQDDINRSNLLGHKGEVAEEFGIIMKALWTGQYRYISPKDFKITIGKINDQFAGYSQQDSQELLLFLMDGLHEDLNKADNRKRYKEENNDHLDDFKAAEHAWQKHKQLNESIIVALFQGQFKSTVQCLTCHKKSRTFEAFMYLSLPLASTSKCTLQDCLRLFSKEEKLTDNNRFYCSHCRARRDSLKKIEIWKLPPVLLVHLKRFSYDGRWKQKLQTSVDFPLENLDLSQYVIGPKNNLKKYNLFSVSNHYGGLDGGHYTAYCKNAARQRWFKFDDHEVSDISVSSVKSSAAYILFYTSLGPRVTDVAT
Kind of assay: USP8 activity assay. In kind it is biochemical. The following applies: 400 nM Ub-AMC, 630 pM enzyme, pH8.8; pre-incubated 30 minutes at 25° C., 60 minutes at 37° C.; sigmoidal fit; read-out: USP 8. An excerpt:
The cDNA encoding USP8 was obtained by PCR amplification from placenta mRNA. USP8 cDNA was subcloned by PCR into a baculovirus expression vector (pFastBac-HT; Invitrogen). A cDNA encoding a mutated USP8 was generated by mutagenic PCR. The corresponding protein encodes a cysteine to alanine substitution at residue 786. The sequences were ascertained by sequencing of the entire open reading frame. Bacmids encoding […] were generated following DH10bac transposition. The corresponding bacmids were transfected. into insect cells (Sf9). Viruses were recovered from culture supernatant and amplified twice. Insect cells (Sf9 or High Five; Invitrogen) were infected for 72 hours. Total cell lysates were harvested and lyzed in lysis buffer (Tris HCl 50 mM pH 7.6; 0.75 % NP40; 500 mM NaCl; 10% glycerol; 1 mM DTT; 10 mM imidazole; Protease Inhibitor Cocktail; AEBSF 20 μg.ml^−1; Aprotinin 10 μg.ml^−1). Proteins were affinity purified on metal affinity resins (Talon Metal affinity resin; BD Biosciences). Bound materials were extensively washed in wash buffer (50 mM Sodium Phosphate pH 7.0; 300 mM NaCl; 10 mM imidazole; 0.5% Triton X-100; 10% glycerol) and eluted from the resin in 250 mM imidazole-containing wash buffer. Proteins were dialyzed in dialysis buffer (Tris HCl pH 7.6 20 mM; NaCl 200 mM; DTT 1 mM; EDTA 1 mM; 10% Glycerol). Proteins purifications were analyzed on 4-12% NuPAGE (Invitrogen).
USP8 was diluted in USP buffer (50 mM Tris HCl; 0.5 mM EDTA; 5 mM DTT; 0.01% Triton X-100; Bovine Serum Albumin 0.05 mg.ml^−1 pH8.8). Compounds stocks (100 mM) were stored at −20° C. in DMSO.
Reactions were performed as duplicates in Black LJL 96 well plates (HE microplates; Molecular Devices; 20 μl final reaction volume).The substrate concentration for USP8 was 400 nM Ub-AMC (Boston Biochem). The concentrations of the enzyme (USP8) in specificity assays was 630 pM. The concentrations were determined in order to perform specificity assays under initial velocities at fixed substrate concentration. Compounds were pre-incubated with enzymes for 30 minutes at 25° C. Reactions were initiated by addition of substrate to the plates containing the enzymes (+/− compounds) diluted in assay buffer. Reactions were incubated for 60 minutes at 37° C. Reactions were stopped by adding acetic acid (100 mM final). Readings were performed on a Pherastar Fluorescent Reader (BMG). λ Emission 380 nm; λ Excitation=460 nm. Data (mean values +/− standard deviation) were analyzed as % of control (no compound) and plotted as percentage versus the Log of the compound concentration using GraphPad (Prism). Data were fitted to a sigmoidal model (variable slope).

[2] abbreviates: Homo sapiens, HCT-116, 72 hours incubation.

Like-named read-outs stand apart in the source and are kept apart here.

With `CC(C)c1nnc2nc3c(nn12)C(=O)c1ccccc1-3` [Example 1l/A, 1-lsopropyl-2,3,4,10,10a-pentaaza-cyclopenta[b]fluoren-9-one], the 50% growth inhibitory concentration (GI50) (in general, the concentration that inhibits growth by half) in assay [1] (setting [2]) came out at 2250 nM.
With `CCc1nnc2nc3c(nn12)C(=O)c1cc(OC)c(OC)cc1-3` [Example 5b/A, 1-Ethyl-6,7-dimethoxy-2,3,4,10,10a-pentaaza-cyclopenta[b]fluoren-9-one], at USP8, the IC50 was 805 nM.
As to `CCc1nnc2nc3c(nn12)-c1c(OC)ccc(OC)c1C3=O` [Example 6/B, 3-Ethyl-5,8-dimethoxy-1,2,3a,4,10-pentaaza-cyclopenta[b]fluoren-9-one], on USP8, the IC50 was 360 nM. Also, the GI50 in assay [1] (setting [2]) turned out to be 257 nM.
With `CCCc1nnc2nc3c(nn12)-c1cc(OC)c(OC)cc1C3=O` [Example 5c/B, 6,7-Dimethoxy-3-propyl-1,2,3a,4,10-pentaaza-cyclopenta[b]fluoren-9-one], the IC50 on USP8 is 104 nM. The GI50 in assay [1] (setting [2]) turned out to be 594 nM.
As for `COCCOCCOCc1nnc2nc3c(nn12)C(=O)c1ccccc1-3` [Example 1n/A, 1-[2-(2-Methoxy-ethoxy)-ethoxymethyl]-2,3,4,10,10a-pentaaza-cyclopenta[b]fluoren-9-one], the IC50 on USP8 turned out to be 347 nM. Moreover, the concentration for 50% growth inhibition (GI50) in assay [1] (setting [2]) worked out at 1910 nM.
In the case of `O=C1c2ccccc2-c2nn3c(C(F)(F)F)nnc3nc21` [Example 1m/B, 3-Trifluoromethyl-1,2,3a,4,10-pentaaza-cyclopenta[b]fluoren-9-one], the IC50 at USP8 came to 162 nM. Also, the 50% growth inhibitory concentration (GI50) in assay [1] (setting [2]) is 28 nM.
Turning to `COc1cc2c(cc1OC)-c1nn3c(C)nnc3nc1C2=O` [Example 5a/B, 6,7-Dimethoxy-3-methyl-1,2,3a,4,10-pentaaza-cyclopenta[b]fluoren-9-one], the IC50 at USP8 worked out at 46 nM. For the same molecule, in assay [1] (setting [2]), the GI50 amounted to 818 nM.
`CCc1nnc2nc3c(nn12)-c1cc(OC)c(OC)cc1C3=O` [Example 5b/B, 3-Ethyl-6,7-dimethoxy-1,2,3a,4,10-pentaaza-cyclopenta[b]fluoren-9-one]: at USP8, the IC50 was found to be 65 nM. Moreover, the GI50 in assay [1] (setting [2]) was 1180 nM.
For the molecule “6-(7)-Chloro-1-methyl-2,3,4,10,10a-pentaaza-cyclopenta[b]fluoren-9-one [Example 3/A]”, at USP8, the IC50 amounted to 301 nM. The GI50 in assay [1] (72 hours incubation) came out at 361 nM.
For `CC(C)c1nnc2nc3c(nn12)-c1ccccc1C3=O` [Example 1l/B, 3-Isopropyl-1,2,3a,4,10-pentaaza-cyclopenta[b]fluoren-9-one], the IC50 at USP8 is 186 nM. In assay [1] (setting [2]), the GI50 was found to be 157 nM.

Values taken from US20090181972A1, “Novel Inhibitors of Cysteine Proteases, the Pharmaceutical Compositions Thereof and their Therapeutic Applications” (priority 2005, published 2009).
